Laboratory results published in ChEMBL document CHEMBL1154298, “Novel non-peptidic vinylsulfones targeting the S2 and S3 subsites of parasite cysteine proteases” (Bioorg Med Chem Lett, 2009).

How the values were obtained:
[1] = molecular target: Rhodesain (Trypanosoma brucei rhodesiense) (UniProt Q95PM0)
[2] = molecular target: T1, Cathepsin B-like cysteine protease (Trypanosoma brucei, UniProt Q6R7Z5)
T1 sequence (Q6R7Z5 whole entry): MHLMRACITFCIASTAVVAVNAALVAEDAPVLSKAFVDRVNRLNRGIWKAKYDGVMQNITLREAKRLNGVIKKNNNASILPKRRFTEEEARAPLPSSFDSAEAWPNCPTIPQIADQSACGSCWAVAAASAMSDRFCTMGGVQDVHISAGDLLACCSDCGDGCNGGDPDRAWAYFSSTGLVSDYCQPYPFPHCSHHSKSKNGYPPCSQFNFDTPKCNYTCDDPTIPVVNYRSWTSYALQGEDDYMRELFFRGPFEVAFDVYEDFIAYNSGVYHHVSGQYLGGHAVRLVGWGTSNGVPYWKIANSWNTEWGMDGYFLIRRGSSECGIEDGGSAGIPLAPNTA

Rhodesain = Rhodesain (Trypanosoma brucei rhodesiense, UniProt Q95PM0)
Rhodesain, sequence (Q95PM0 whole entry): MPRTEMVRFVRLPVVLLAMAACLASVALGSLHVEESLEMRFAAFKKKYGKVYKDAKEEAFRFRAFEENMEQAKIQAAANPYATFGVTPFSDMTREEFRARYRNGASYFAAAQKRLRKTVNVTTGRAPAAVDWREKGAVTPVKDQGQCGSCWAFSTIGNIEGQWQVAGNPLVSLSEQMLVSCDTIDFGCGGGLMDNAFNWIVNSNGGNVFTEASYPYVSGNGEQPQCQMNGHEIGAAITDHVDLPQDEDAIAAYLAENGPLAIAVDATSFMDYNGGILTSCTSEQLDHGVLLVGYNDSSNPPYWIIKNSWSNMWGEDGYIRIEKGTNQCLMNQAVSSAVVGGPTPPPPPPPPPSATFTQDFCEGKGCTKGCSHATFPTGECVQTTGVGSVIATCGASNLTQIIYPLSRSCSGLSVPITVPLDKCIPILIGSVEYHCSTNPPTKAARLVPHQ

Jurkat = test: cells; conditions: Homo sapiens
[3] = tested on: Trypanosoma brucei brucei; test: microbe, parasite or virus in culture; conditions: Jurkat
Cruzipain = Cruzipain (Trypanosoma cruzi, UniProt P25779)
Cruzipain, sequence (P25779 whole entry): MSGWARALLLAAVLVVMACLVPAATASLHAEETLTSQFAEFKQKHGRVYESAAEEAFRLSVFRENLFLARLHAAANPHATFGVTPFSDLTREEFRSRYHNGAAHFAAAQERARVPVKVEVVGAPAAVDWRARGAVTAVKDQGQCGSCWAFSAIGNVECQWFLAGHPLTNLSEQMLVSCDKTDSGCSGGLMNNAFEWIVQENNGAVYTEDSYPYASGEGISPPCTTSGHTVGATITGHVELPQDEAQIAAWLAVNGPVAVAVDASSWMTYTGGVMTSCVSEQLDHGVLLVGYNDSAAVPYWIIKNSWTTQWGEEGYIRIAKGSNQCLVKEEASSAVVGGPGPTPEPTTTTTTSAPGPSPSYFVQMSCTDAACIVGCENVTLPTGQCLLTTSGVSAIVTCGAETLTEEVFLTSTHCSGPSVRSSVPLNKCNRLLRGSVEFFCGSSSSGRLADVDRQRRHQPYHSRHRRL

[4] = molecular target: Cruzipain (Trypanosoma cruzi) (UniProt P25779); test: Inhibition of Trypanosoma cruzi cruzain at 1 uM after 5 mins
Cruzipain (Trypanosoma cruzi), sequence (P25779 123-467 limits assumed): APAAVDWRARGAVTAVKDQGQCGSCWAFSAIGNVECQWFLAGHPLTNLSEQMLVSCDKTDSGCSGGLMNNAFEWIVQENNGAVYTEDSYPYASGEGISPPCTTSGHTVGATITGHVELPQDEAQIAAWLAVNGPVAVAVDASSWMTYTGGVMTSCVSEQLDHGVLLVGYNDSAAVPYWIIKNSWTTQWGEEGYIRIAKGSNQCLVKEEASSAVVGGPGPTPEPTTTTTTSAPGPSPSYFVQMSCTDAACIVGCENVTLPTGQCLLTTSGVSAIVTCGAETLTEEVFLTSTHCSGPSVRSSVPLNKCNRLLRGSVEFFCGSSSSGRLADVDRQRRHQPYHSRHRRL

Rhodesain (Trypanosoma brucei rhodesiense), sequence (Q95PM0 1-450): as the sequence (Q95PM0 whole entry) above

Row | Compound | Kinact [1] [s⁻¹] | IC50 [2] [µM] | IC50 (Rhodesain) [µM] | Ki (Rhodesain) [µM] | IC50 (Jurkat) [µM] | GI50 [3] [µM] | IC50 (Cruzipain) [µM] | inhibition [4] [%]
1 | O=C(N[C@H](/C=C/S(=O)(=O)c1ccccc1)CCc1ccccc1)c1cc(-c2ccccn2)no1 | 0.0038 | > 100 | 0.05 | 7.4 | > 100 | 10 | 6 | < 5
2 | O=C(N[C@H](/C=C/S(=O)(=O)c1ccccc1)CCc1ccccc1)[C@H]1CCCC[C@@H]1C(=O)c1ccc(Cl)cc1 | 0.0007 | > 100 | 56 | 4.9 | – | – | > 100 | –
3 | Cc1nc(-c2cnccn2)sc1C(=O)N[C@H](/C=C/S(=O)(=O)c1ccccc1)CCc1ccccc1 | 0.0079 | > 100 | 0.01 | 4.77 | > 100 | 7 | 1 | –
4 | O=C(N[C@H](/C=C/S(=O)(=O)c1ccccc1)CCc1ccccc1)[C@@H]1CCCC[C@H]1C(=O)c1ccc(Cl)cc1 | 0.00051 | 16 | 0.1 | 0.8 | – | – | 0.05 | –
5 | O=C(N[C@H](/C=C/S(=O)(=O)c1ccccc1)CCc1ccccc1)c1cc(-c2ccncc2)no1 | 0.0091 | > 100 | 0.05 | 16.2 | > 100 | 10 | 5 | < 5
6 | O=C(N[C@H](/C=C/S(=O)(=O)c1ccccc1)CCc1ccccc1)c1ccccc1C(=O)c1ccc(Cl)cc1 | – | – | – | – | – | – | – | 3
7 | Cc1onc(-c2ccc(F)cc2)c1C(=O)N[C@H](/C=C/S(=O)(=O)c1ccccc1)CCc1ccccc1 | – | – | – | – | – | – | – | 12.5
8 | Cc1nc(-c2cccnc2)sc1C(=O)N[C@H](/C=C/S(=O)(=O)c1ccccc1)CCc1ccccc1 | – | > 100 | 0.03 | – | 98 | 20 | 2 | –
9 | O=C(N[C@H](/C=C/S(=O)(=O)c1ccccc1)CCc1ccccc1)c1cc(-c2ccccc2)no1 | 0.0031 | 40 | 0.01 | 13 | > 100 | > 100 | 2 | –
10 | O=C(N[C@H](/C=C/S(=O)(=O)c1ccccc1)CCc1ccccc1)c1cc(-c2cccnc2)no1 | – | > 100 | 0.01 | – | > 100 | > 100 | 1 | –
11 | CN1CCN(C(=O)N[C@@H](Cc2ccccc2)C(=O)N[C@H](/C=C/S(=O)(=O)c2ccccc2)CCc2ccccc2)CC1 [K-777] | – | 4 | – | – | – | 7 | – | –
12 | Cc1nc(-c2ccccc2)sc1C(=O)N[C@H](/C=C/S(=O)(=O)c1ccccc1)CCc1ccccc1 | 0.0018 | > 100 | < 0.006 | 0.32 | > 100 | > 100 | 10 | < 5
13 | CC(C)(C)c1cc(C(=O)N[C@H](/C=C/S(=O)(=O)c2ccccc2)CCc2ccccc2)n(Cc2ccccc2)n1 | – | – | – | – | – | – | – | 2
